Source: patent publication US11020415B2, “Use of albiflorin in preparation of products for improving function of intestinal flora system” (priority 2016, dated 2021)

Assays:
[1] = system: intestinal flora in stressed rats; assay: Targeted metabolomics of intestinal flora metabolism in chronic unpredictable mild stress (CUMS) model rats (PLS-DA, VIP analysis); assay type: in vivo, rat
Experimental: We established a chronic unpredictable mild stress (CUMS) model of rats, and used a new generation of targeted metabolomics method to study the metabolic function of intestinal flora in stressed rats.
(§1) We further administered the stressed model rats an albiflorin treatment for 7 consecutive days at each dose of 7 mg/k& for each treatment. 7 days later, we used metabolomics and a 16sDNA high-throughput metagenomic sequencing technology to re-evaluate the function and composition of intestinal flora in the rats. […] This was consistent with the results of analysis of flora composition.
As a positive drug, fluoxetine was continuously administered for 7 days at each dose of 10 mg/kg/d.

cannabinoid receptor CB2 = cannabinoid receptor CB2 (Homo sapiens, UniProt P34972); assay: Cannabinoid receptor CB2 activity (stated, no method); details: stated as finding of the invention's research; no data or method printed
cannabinoid receptor CB2, sequence (P34972 whole entry): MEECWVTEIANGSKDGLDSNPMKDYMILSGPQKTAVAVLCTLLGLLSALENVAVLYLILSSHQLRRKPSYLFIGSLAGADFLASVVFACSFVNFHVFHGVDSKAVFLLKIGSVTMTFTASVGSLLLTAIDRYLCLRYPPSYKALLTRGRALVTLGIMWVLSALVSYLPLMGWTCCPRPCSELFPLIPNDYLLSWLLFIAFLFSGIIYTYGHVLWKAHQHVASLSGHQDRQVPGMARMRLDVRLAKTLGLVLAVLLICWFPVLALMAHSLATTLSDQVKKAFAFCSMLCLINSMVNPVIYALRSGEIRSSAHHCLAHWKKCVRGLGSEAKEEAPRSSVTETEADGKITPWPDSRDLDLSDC

[2] = system: intestinal flora in stressed rats; assay: High-throughput 16s metagenomic sequencing of intestinal flora composition in CUMS model rats (cluster analysis); assay type: in vivo, rat; details: albiflorin 7 days
Experimental: as §1
FIG. 5 is a graph showing the cluster analysis of intestinal flora composition correlation.

[3] = after 7 days of administration of albiflorin

| SMILES | Metabolism of rat intestinal flora relative to the normal state (multivariable PLS-DA analysis) ([1]; fluoxetine 7 days, 10 mg/kg/d, FIG. 6) | Amounts of cholic acid, amino acids and vitamins (intestinal flora metabolites) compared with the depression group [1, 3] | Overall metabolism of intestinal flora compared with the depression group (VIP analysis) [1, 3] | Metabolism of intestinal flora relative to the normal group (PLS-DA multiple comparative analysis of metabolomics data) ([1]; albiflorin 7 consecutive days, 7 mg/k&, FIG. 1) | Action at cannabinoid receptor CB2 (cannabinoid receptor CB2) | Amount of probiotic firmicutes, especially lactic acid bacteria, compared with the stressed rat model group [2] | Intestinal flora composition versus blank group (Control), cluster analysis [2] |
| --- | --- | --- | --- | --- | --- | --- | --- |
| CNCCC(Oc1ccc(C(F)(F)F)cc1)c1ccccc1 (stereo not shown) [fluoxetine, reference compound] | deviated the metabolism of rat intestinal flora more from the normal state | – | – | – | – | – | – |
| C[C@]12C[C@@H](O)[C@@H]3C[C@@]1(O[C@@H]1O[C@H](CO)[C@@H](O)[C@H](O)[C@H]1O)[C@@]3(COC(=O)c1ccccc1)C(=O)O2 [albiflorin] | – | increased | significantly improved | almost completely overlapped with the normal group | agonist | significantly increased | no statistical difference (P>0.05) |
